Data as given in ChEMBL document CHEMBL1201862, “PubChem BioAssay data set” (2004).
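Compound exposure: 48 hours, 5 concentrations, 96-well plates. Here, GI50 denotes the concentration required for 50% inhibition of growth.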 Calls of active or inactive are those of the source. Cut-off read from the data, not from the text of the source: active = GI50 up to about 1.1 µM and inactive = higher.

How the values were obtained:
Experiment in all cases: NCI tumour cell line growth inhibition, 48 h
COLO 205 = system: COLO 205
SK-MEL-5 = system: SK-MEL-5
LOX IMVI = system: LOX IMVI
OVCAR-5 = system: OVCAR-5
NCI-H23 = system: NCI-H23
UO-31 = system: UO-31
CAKI-1 = system: CAKI-1
EKVX = system: EKVX
HCC 2998 = system: HCC 2998
U-251 = system: U-251
SF-295 = system: SF-295
786-0 = system: 786-0
HCT-15 = system: HCT-15
SW-620 = system: SW-620
IGROV-1 = system: IGROV-1
A549 = system: A549
OVCAR-8 = system: OVCAR-8
SN12C = system: SN12C
ACHN = system: ACHN
MCF7 = system: MCF7

Row | SMILES | GI50 (COLO 205) | GI50 (SK-MEL-5) | GI50 (LOX IMVI) | GI50 (OVCAR-5) | GI50 (NCI-H23) | GI50 (UO-31) | GI50 (CAKI-1) | GI50 (EKVX) | GI50 (HCC 2998) | GI50 (U-251) | GI50 (SF-295) | GI50 (786-0) | GI50 (HCT-15) [µM] | GI50 (SW-620) | GI50 (IGROV-1) | GI50 (A549) | GI50 (OVCAR-8) | GI50 (SN12C) | GI50 (ACHN) | GI50 (MCF7)
1 | COC(=O)C(C(=O)OC)C1CC(=O)c2c(Br)sc(Br)c21 (stereo not given) | 15.2 µM (inactive) | 15.1 µM (inactive) | 12.9 µM (inactive) | 15.1 µM (inactive) | 12.8 µM (inactive) | 14.5 µM (inactive) | 9.06 µM (inactive) | 15.2 µM (inactive) | 14.3 µM (inactive) | 16.3 µM (inactive) | 21.8 µM (inactive) | 26.1 µM (inactive) | 9.44 | 11.5 µM (inactive) | 14.1 µM (inactive) | 25 µM (inactive) | 16.8 µM (inactive) | 14.7 µM (inactive) | 13.7 µM (inactive) | 13.6 µM (inactive)
2 | C/C(=N\Nc1nc2ccccc2[nH]1)c1cccc[n+]1[O-] | 65.8 µM (inactive) | > 100 µM (inactive) | 56.6 µM (inactive) | 8.91 µM (inactive) | > 100 µM (inactive) | 64.6 µM (inactive) | 34.5 µM (inactive) | 3.03 µM (inactive) | 6.55 µM (inactive) | 75 µM (inactive) | 3.48 µM (inactive) | > 100 µM (inactive) | 51.5 | > 100 µM (inactive) | 63.4 µM (inactive) | > 100 µM (inactive) | > 100 µM (inactive) | > 100 µM (inactive) | 71 µM (inactive) | > 100 µM (inactive)
3 | N#C/C(N)=C(C#N)/N=C/NCc1ccccc1 | > 100 µM (inactive) | > 100 µM (inactive) | > 100 µM (inactive) | > 100 µM (inactive) | > 100 µM (inactive) | > 100 µM (inactive) | > 100 µM (inactive) | > 100 µM (inactive) | > 100 µM (inactive) | > 100 µM (inactive) | > 100 µM (inactive) | > 100 µM (inactive) | > 100 | > 100 µM (inactive) | > 100 µM (inactive) | > 100 µM (inactive) | > 100 µM (inactive) | > 100 µM (inactive) | > 100 µM (inactive) | > 100 µM (inactive)
4 | O=[N+]([O-])c1cccc2nc3ccccc3c(NCCNCCO)c12 | 0.00176 µM (active) | 0.00153 µM (active) | 0.00413 µM (active) | 0.0109 µM (active) | 0.00146 µM (active) | 0.07 µM (active) | 0.0178 µM (active) | 0.00853 µM (active) | 0.00217 µM (active) | 0.0118 µM (active) | 0.00425 µM (active) | 0.00348 µM (active) | 0.0405 | 0.00899 µM (active) | 0.00198 µM (active) | 0.00337 µM (active) | 0.00733 µM (active) | 0.0122 µM (active) | 0.00875 µM (active) | 0.001 µM (active)
5 | COC(=O)N/N=C(/CC1(O)C(=O)Nc2ccc([N+](=O)[O-])cc21)c1ccccc1 (stereo not given) | 50.7 µM (inactive) | 23.9 µM (inactive) | 18.9 µM (inactive) | > 79.6 µM (inactive) | 21.3 µM (inactive) | 40.9 µM (inactive) | 75.7 µM (inactive) | > 54.1 µM (inactive) | 67.1 µM (inactive) | 29.9 µM (inactive) | 17.5 µM (inactive) | 25.4 µM (inactive) | > 51.2 | 37.8 µM (inactive) | > 46.7 µM (inactive) | 63.1 µM (inactive) | 29.4 µM (inactive) | > 74 µM (inactive) | 33.3 µM (inactive) | 1.19 µM (inactive)
